From article PMC9395446, “First-in-human phase 1/1b study to evaluate sitravatinib in patients with advanced solid tumors” (Investigational New Drugs, 2022)
“And” between values parts separate entries of the source, which are not always exact repeats. Equal values may be shown once. Read-outs that look alike come from different tables or passages of the source.

Legend:
[1] = Plasma pharmacokinetics after single and multiple oral doses (noncompartmental analysis); assay type: in vivo, human; conditions: for Cmax / Tmax / AUC / AUC(0-t) / AUC(0-inf) / Vd/F / half-life: human, plasma; for AUC(0-t): read-out: AUClast, geometric mean (CV%); for AUC(0-inf): read-out: AUC∞, geometric mean (CV%); for Vd/F: read-out: Vz/F, geometric mean (CV%)
Description: In the PK lead-in period, patients received a single oral dose of sitravatinib (10–200 mg) under fasted conditions with at least 200 mL of water, followed by PK sample collection for 3–7 days, depending on emerging PK information. After the PK lead-in period, patients commenced the daily regimen planned for their cohort. Blood samples were collected pre-dose and 0.5 (for 10 mg only), 1, 2, 4, 6, 8, 12, 24, 36, 48, 72 and 168 (for 20–200 mg dose levels) h post-dose from patients following a single oral dose, and at pre-dose, 0.5, 1, 2, 4, 6, 8, 12 and 24 h post-dose following multiple oral doses for the 10–200 mg levels.
PK samples were collected after a single dose during the PK lead-in period and following multiple oral doses during the study. Plasma PK samples were assayed for quantification of sitravatinib. The lower limit of quantification was 0.05 ng/mL. PK parameters were determined using a noncompartmental analysis approach including maximum (peak) concentration (Cmax), time to reach Cmax following drug administration (tmax), area under the plasma concentration–time curves (AUCs), apparent total clearance of the drug from plasma after oral administration, apparent volume of distribution during the terminal phase after administration and terminal elimination half-life (t1/2). PD effects were examined by analyzing VEGF-A ligand and soluble (s)-VEGF-R2 levels in patients’ plasma samples collected before and after sitravatinib administration.

[2] = system: target RTKs, including AXL, MERTK, VEGF-R, KIT and MET; conditions: read-out: Biochemical half-maximal inhibitory concentration, range; against target RTKs; cited from earlier work
[3] = 200 mg QD, Cycle 1 Day 15, single patient result

COCCNCc1ccc(-c2cc3nccc(Oc4ccc(NC(=O)C5(C(=O)Nc6ccc(F)cc6)CC5)cc4F)c3s2)nc1 [sitravatinib, Sitravatinib]
CL/F at steady state, geometric mean (CV%) ([1]; 10 mg QD, Cycle 1 Day 8): 42.5 (42.8); 2 L/h | Cav,ss, geometric mean (CV%) ([1]; 10 mg QD, Cycle 1 Day 8): 9.81 (42.8); 2 ng/mL | CL/F at steady state, geometric mean (CV%) ([1]; 20 mg QD, Cycle 1 Day 15): 41.2 (6.4); 3 L/h | Cav,ss, geometric mean (CV%) ([1]; 20 mg QD, Cycle 1 Day 15): 20.2 (6.4); 3 ng/mL | CL/F at steady state, geometric mean (CV%) ([1]; 40 mg QD, Cycle 1 Day 15): 64.6 (156.5); 5 L/h | Cav,ss, geometric mean (CV%) ([1]; 40 mg QD, Cycle 1 Day 15): 25.8 (156.5); 5 ng/mL | CL/F at steady state, geometric mean (CV%) ([1]; 80 mg QD, Cycle 1 Day 15): 65.7 (104.9); 5 L/h | Cav,ss, geometric mean (CV%) ([1]; 80 mg QD, Cycle 1 Day 15): 50.7 (104.9); 5 ng/mL | CL/F at steady state, geometric mean (CV%) ([1]; 110 mg QD, Cycle 1 Day 15): 48.9 (44.5); 3 L/h | Cav,ss, geometric mean (CV%) ([1]; 110 mg QD, Cycle 1 Day 15): 93.7 (44.5); 3 ng/mL | Interpatient variability for Cmax and AUCτ,ss ([1]; 120 mg QD): ~ 60% | CL/F at steady state, geometric mean (CV%) ([1]; 120 mg QD, Cycle 1 Day 15): 75.0 (59.1); 3 L/h | Cav,ss, geometric mean (CV%) ([1]; 120 mg QD, Cycle 1 Day 15): 66.7 (59.1); 3 ng/mL | CL/F at steady state, geometric mean (CV%) ([1]; 150 mg QD, Cycle 1 Day 15): 68.8 (46.5); 18 L/h | Cav,ss, geometric mean (CV%) ([1]; 150 mg QD, Cycle 1 Day 15): 90.9 (46.5); 18 ng/mL | CL/F at steady state [1, 3]: 48.4 (NA); 1 L/h | Cav,ss [1, 3]: 172 (NA); 1 ng/mL | Time by which steady-state appeared to be reached ([1]; QD dosing): cycle 1 day 8 | Cmax ([1]; oral, 10 mg, 10 mg QD, Cycle 1 Day 8, read-out: Cmax,ss, geometric mean (CV%)): 11.4 ng/mL | Tmax ([1]; oral, 10 mg, 10 mg QD, Cycle 1 Day 8, read-out: tmax,ss, median (min–max)): 2 h | Cmax ([1]; oral, 10 mg, single dose 10 mg, read-out: Cmax, geometric mean (CV%)): 3.54 ng/mL | Tmax ([1]; oral, 10 mg, single dose 10 mg, read-out: tmax, median (min–max)): 5.03 h | Cmax ([1]; oral, 20 mg, 20 mg QD, Cycle 1 Day 15, read-out: Cmax,ss, geometric mean (CV%)): 23.7 ng/mL | Tmax ([1]; oral, 20 mg, 20 mg QD, Cycle 1 Day 15, read-out: tmax,ss, median (min–max)): 8.13 h | Cmax ([1]; oral, 20 mg, single dose 20 mg, read-out: Cmax, geometric mean (CV%)): 5.71 ng/mL | Tmax ([1]; oral, 20 mg, single dose 20 mg, read-out: tmax, median (min–max)): 8.04 h | Cmax ([1]; oral, 40 mg, 40 mg QD, Cycle 1 Day 15, read-out: Cmax,ss, geometric mean (CV%)): 32.5 ng/mL | Tmax ([1]; oral, 40 mg, 40 mg QD, Cycle 1 Day 15, read-out: tmax,ss, median (min–max)): 4 h | Cmax ([1]; oral, 40 mg, single dose 40 mg, read-out: Cmax, geometric mean (CV%)): 11.8 ng/mL | Tmax ([1]; oral, 40 mg, single dose 40 mg, read-out: tmax, median (min–max)): 4.05 h | Cmax ([1]; oral, 80 mg, 80 mg QD, Cycle 1 Day 15, read-out: Cmax,ss, geometric mean (CV%)): 69.2 ng/mL | Tmax ([1]; oral, 80 mg, 80 mg QD, Cycle 1 Day 15, read-out: tmax,ss, median (min–max)): 4.01 h | Cmax ([1]; oral, 80 mg, single dose 80 mg, read-out: Cmax, geometric mean (CV%)): 31.7 ng/mL | Tmax ([1]; oral, 80 mg, single dose 80 mg, read-out: tmax, median (min–max)): 6 h | Cmax ([1]; oral, 110 mg, 110 mg QD, Cycle 1 Day 15, read-out: Cmax,ss, geometric mean (CV%)): 119 ng/mL | Tmax ([1]; oral, 110 mg, 110 mg QD, Cycle 1 Day 15, read-out: tmax,ss, median (min–max)): 2 h | Cmax ([1]; oral, 110 mg, single dose 110 mg, read-out: Cmax, geometric mean (CV%)): 49.1 ng/mL | Tmax ([1]; oral, 110 mg, single dose 110 mg, read-out: tmax, median (min–max)): 3.02 h | Cmax ([1]; oral, 120 mg, 120 mg QD, Cycle 1 Day 15, read-out: Cmax,ss, geometric mean (CV%)): 80.4 ng/mL | Tmax ([1]; oral, 120 mg, 120 mg QD, Cycle 1 Day 15, read-out: tmax,ss, median (min–max)): 4 h | Cmax ([1]; oral, 120 mg, single dose 120 mg, read-out: Cmax, geometric mean (CV%)): 23.8 ng/mL | Tmax ([1]; oral, 120 mg, single dose 120 mg, read-out: tmax, median (min–max)): 8.87 h | Cmax ([1]; oral, 150 mg, 150 mg QD, Cycle 1 Day 15, read-out: Cmax,ss, geometric mean (CV%)): 114 ng/mL | Tmax ([1]; oral, 150 mg, 150 mg QD, Cycle 1 Day 15, read-out: tmax,ss, median (min–max)): 7.83 h | Cmax ([1]; oral, 150 mg, single dose 150 mg, read-out: Cmax, geometric mean (CV%)): 69.3 ng/mL | Tmax ([1]; oral, 150 mg, single dose 150 mg, read-out: tmax, median (min–max)): 6 h | Cmax ([1]; oral, 200 mg, 200 mg QD, Cycle 1 Day 15, single patient result, read-out: Cmax,ss): 221 ng/mL | Tmax ([1]; oral, 200 mg, 200 mg QD, Cycle 1 Day 15, single patient result, read-out: tmax,ss, median (min–max)): 10 h | Cmax ([1]; oral, 200 mg, single dose 200 mg, read-out: Cmax, geometric mean (CV%)): 85 ng/mL | Tmax ([1]; oral, 200 mg, single dose 200 mg, read-out: tmax, median (min–max)): 5.94 h | AUC ([1]; oral, 10 mg QD, Cycle 1 Day 8, read-out: AUCτ,ss, geometric mean (CV%)): 235 ng·h/mL | AUC ([1]; oral, 20 mg QD, Cycle 1 Day 15, read-out: AUCτ,ss, geometric mean (CV%)): 486 ng·h/mL | AUC ([1]; oral, 40 mg QD, Cycle 1 Day 15, read-out: AUCτ,ss, geometric mean (CV%)): 619 ng·h/mL | AUC ([1]; oral, 80 mg QD, Cycle 1 Day 15, read-out: AUCτ,ss, geometric mean (CV%)): 1220 ng·h/mL | AUC ([1]; oral, 110 mg QD, Cycle 1 Day 15, read-out: AUCτ,ss, geometric mean (CV%)): 2250 ng·h/mL | AUC ([1]; oral, 120 mg QD, Cycle 1 Day 15, read-out: AUCτ,ss, geometric mean (CV%)): 1600 ng·h/mL | AUC ([1]; oral, 150 mg QD, Cycle 1 Day 15, read-out: AUCτ,ss, geometric mean (CV%)): 2180 ng·h/mL | AUC ([1]; oral, 200 mg QD, Cycle 1 Day 15, single patient result, read-out: AUCτ,ss): 4130 ng·h/mL | AUC(0-t) ([1]; oral, single dose 10 mg): 149 ng·h/mL | AUC(0-inf) ([1]; oral, single dose 10 mg): 165 ng·h/mL | Vd/F ([1]; oral, single dose 10 mg): 3720 L | half-life ([1]; oral, single dose 10 mg, read-out: t1/2, arithmetic mean (CV%) (converted)): 43.6 h | AUC(0-t) ([1]; oral, single dose 20 mg): 300 ng·h/mL | AUC(0-inf) ([1]; oral, single dose 20 mg): 501 ng·h/mL | Vd/F ([1]; oral, single dose 20 mg): 2500 L | half-life ([1]; oral, single dose 20 mg, read-out: t1/2, arithmetic mean (CV%) (converted)): 47 h | AUC(0-t) ([1]; oral, single dose 40 mg): 509 ng·h/mL | AUC(0-inf) ([1]; oral, single dose 40 mg): 478 ng·h/mL | Vd/F ([1]; oral, single dose 40 mg): 5610 L | half-life ([1]; oral, single dose 40 mg, read-out: t1/2, arithmetic mean (CV%) (converted)): 46.5 h | AUC(0-t) ([1]; oral, single dose 80 mg): 1430 ng·h/mL | AUC(0-inf) ([1]; oral, single dose 80 mg): 1540 ng·h/mL | Vd/F ([1]; oral, single dose 80 mg): 3360 L | half-life ([1]; oral, single dose 80 mg, read-out: t1/2, arithmetic mean (CV%) (converted)): 46.2 h | AUC(0-t) ([1]; oral, single dose 110 mg): 2030 ng·h/mL | AUC(0-inf) ([1]; oral, single dose 110 mg): 2920 ng·h/mL | Vd/F ([1]; oral, single dose 110 mg): 2410 L | half-life ([1]; oral, single dose 110 mg, read-out: t1/2, arithmetic mean (CV%) (converted)): 44.7 h | AUC(0-t) ([1]; oral, single dose 120 mg): 1210 ng·h/mL | AUC(0-inf) ([1]; oral, single dose 120 mg): 1320 ng·h/mL | Vd/F ([1]; oral, single dose 120 mg): 6370 L | half-life ([1]; oral, single dose 120 mg, read-out: t1/2, arithmetic mean (CV%) (converted)): 49.3 h | AUC(0-t) ([1]; oral, single dose 150 mg): 2940 ng·h/mL | AUC(0-inf) ([1]; oral, single dose 150 mg): 3560 ng·h/mL | Vd/F ([1]; oral, single dose 150 mg): 2510 L | half-life ([1]; oral, single dose 150 mg, read-out: t1/2, arithmetic mean (CV%) (converted)): 42.1 h | AUC(0-t) ([1]; oral, single dose 200 mg): 3300 ng·h/mL | AUC(0-inf) ([1]; oral, single dose 200 mg): 4000 ng·h/mL | Vd/F ([1]; oral, single dose 200 mg): 3660 L | half-life ([1]; oral, single dose 200 mg, read-out: t1/2, arithmetic mean (CV%) (converted)): 51.5 h | Tmax ([1]; po, multiple oral 10–150 mg QD, fasting, read-out: Median tmax,ss, range across dose levels): 2 to 8.13 h | Tmax ([1]; po, single oral 10–200 mg, fasting, read-out: Median tmax, range across dose levels): 3.02 to 8.87 h | half-life ([1]; single oral 10–200 mg, fasting, read-out: Arithmetic mean terminal elimination t1/2, range across dose levels): 42.1 to 51.5 h | AUCτ,ss accumulation ratio, range ([1]; multiple QD doses): 2.13–8.34 | Cmax,ss accumulation ratio, range ([1]; multiple QD doses): 1.82–6.89 | Dose proportionality of exposure (Cmax and AUCs) ([1]; single and multiple doses 10–200 mg, power model): approximately dose-proportional | CL/F, geometric mean (CV%) ([1]; single dose 10 mg): 60.5 (58.3); 3 L/h | CL/F, geometric mean (CV%) ([1]; single dose 20 mg): 39.9 (63.4); 3 L/h | CL/F, geometric mean (CV%) ([1]; single dose 40 mg): 83.7 (194.6); 4 L/h | CL/F, geometric mean (CV%) ([1]; single dose 80 mg): 52.0 (104.1); 7 L/h | CL/F, geometric mean (CV%) ([1]; single dose 110 mg): 37.6 (61.0); 3 L/h | CL/F, geometric mean (CV%) ([1]; single dose 120 mg): 91.2 (109.5); 4 L/h | CL/F, geometric mean (CV%) ([1]; single dose 150 mg): 42.1 (63.7); 12 L/h | CL/F, geometric mean (CV%) ([1]; single dose 200 mg): 50.0 (126.1); 3 L/h | Peak to trough ratio (PTR) in plasma at steady state ([1]; steady state): 1.5–2.1 fold and 1.5- to 2.1 fold | IC50 [2]: 1.5 to 20 nM
